Laboratory results reported in publication PMC10254170, “Diastereoselective Synthesis of the Borylated D-Galactose Monosaccharide 3-Boronic-3-Deoxy-D-Galactose and Biological Evaluation in Glycosidase Inhibition and in Cancer for Boron Neutron Capture Therapy (BNCT)” (Molecules, 2023).
Like-named read-outs stand apart in the source and are kept apart here.

Experiments:
[1] = target: rice α-glucosidase (Oryza sativa subsp. japonica, UniProt Q653V7); test: Glycosidase inhibition, rice α-glucosidase; type: biochemical
Sequence of rice α-glucosidase (Q653V7 34-885): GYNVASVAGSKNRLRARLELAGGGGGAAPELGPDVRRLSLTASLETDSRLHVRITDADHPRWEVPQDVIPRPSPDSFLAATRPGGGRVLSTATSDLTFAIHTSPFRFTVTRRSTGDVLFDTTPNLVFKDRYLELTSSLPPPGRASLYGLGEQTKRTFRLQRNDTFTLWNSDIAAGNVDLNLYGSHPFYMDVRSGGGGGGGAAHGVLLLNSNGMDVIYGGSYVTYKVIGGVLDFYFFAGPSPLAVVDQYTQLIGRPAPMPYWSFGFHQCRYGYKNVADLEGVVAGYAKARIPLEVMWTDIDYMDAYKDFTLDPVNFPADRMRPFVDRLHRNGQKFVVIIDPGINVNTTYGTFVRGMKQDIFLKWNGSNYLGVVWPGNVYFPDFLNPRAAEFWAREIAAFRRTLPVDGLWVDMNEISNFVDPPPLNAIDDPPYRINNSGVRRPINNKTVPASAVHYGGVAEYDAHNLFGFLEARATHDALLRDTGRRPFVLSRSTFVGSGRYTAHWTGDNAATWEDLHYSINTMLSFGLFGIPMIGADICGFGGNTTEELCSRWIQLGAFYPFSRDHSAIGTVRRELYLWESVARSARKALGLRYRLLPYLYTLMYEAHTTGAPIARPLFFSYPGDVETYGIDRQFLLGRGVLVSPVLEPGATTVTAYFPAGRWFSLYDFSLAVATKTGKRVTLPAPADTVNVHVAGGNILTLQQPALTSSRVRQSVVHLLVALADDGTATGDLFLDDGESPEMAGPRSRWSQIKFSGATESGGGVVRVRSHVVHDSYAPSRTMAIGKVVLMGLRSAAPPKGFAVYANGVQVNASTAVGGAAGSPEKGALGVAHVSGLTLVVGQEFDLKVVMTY
Text: (§1) Glycosidase modulation studies need to explore selectivity as well as potency. Our drugs and controls are therefore screened against a panel of glycosidases in methanol (Table 1) to identify the glycosidase-related disease area(s), selectivity profile, and potency of biological action for each drug. The presence of organic boron covalently bonded to the drug structure also grants a reduced toxicity profile. Following the glycosidase inhibition range recommendations, an IC50 value >250 μm denotes weak inhibition, 100–249 μm denotes moderate inhibition, 10–99 μm good inhibition, 0.1–9 μm potent inhibition, and <0.1 μm very potent inhibition. […] Our boronated D-galactose 7 represents a novel lead in glycosidase inhibition.
(§2) The glycosidases screened are the following: rice α-glucosidase, yeast α-glucosidase, Bacillus α-glucosidase, rat intestinal maltase α-glucosidase, almond β-glucosidase, bovine liver β-glucosidase, coffee beans α-galactosidase, bovine liver β-galactosidase, Jack bean α-mannosidase, snail β-mannosidase, Penicillium decumbens α-L-rhamnosidase, bovine kidney α-L-fucosidase, Eschierichia coli β-glucuronidase, bovine liver β-glucuronidase, porcine kidney trehalase, Aspergillus niger amyloglucosidase, and bovine kidney N-acetyl-β-glucosaminidase. The disease areas for each glycosidase are summarized in [1].
(§3) Brush border membranes were prepared from the rat small intestine according to the method of Kessler et al. and were assayed at pH 6.8 for rat intestinal maltase using maltose. For rat intestinal maltase, porcine kidney trehalase, and A. niger amyloglucosidase activities, the reaction mixture contained 25 mM maltose and the appropriate amount of enzyme, and the incubations were performed for 10–30 min at 37 °C. The reaction was stopped by heating at 100 °C for 3 min. After centrifugation (600 g; 10 min), the resulting reaction mixture was added to the Glucose CII-test Wako (Wako Pure Chemical Ind., Osaka, Japan). The absorbance at 505 nm was measured to determine the amount of the released D-glucose. Other glycosidase activities were determined using an appropriate para-nitrophenyl glycoside as substrate at the optimum pH of each enzyme. The reaction mixture contained 2 mM of the substrate and the appropriate amount of enzyme. The reaction was stopped by the addition of 400 mM Na2CO3. The released para-nitrophenol was measured spectrometrically at 400 nm. All reactions run in methanol.

[2] = target: T1, coffee beans α-galactosidase (Coffea arabica, UniProt Q42656); test: Glycosidase inhibition, coffee beans α-galactosidase; type: biochemical
T1 construct: purchased Sigma-Aldrich Co
T1 sequence (Q42656 16-378): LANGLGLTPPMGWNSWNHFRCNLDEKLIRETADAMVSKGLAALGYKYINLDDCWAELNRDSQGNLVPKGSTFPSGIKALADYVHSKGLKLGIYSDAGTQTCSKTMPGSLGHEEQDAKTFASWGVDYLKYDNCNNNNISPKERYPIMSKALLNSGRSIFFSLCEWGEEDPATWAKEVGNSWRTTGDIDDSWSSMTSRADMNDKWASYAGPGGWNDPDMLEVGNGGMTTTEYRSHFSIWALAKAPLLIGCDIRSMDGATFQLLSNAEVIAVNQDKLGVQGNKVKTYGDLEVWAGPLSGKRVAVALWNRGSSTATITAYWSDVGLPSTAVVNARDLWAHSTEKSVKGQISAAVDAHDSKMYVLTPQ
Text: as §1, §2
(§4) The enzymes α-glucosidase (from yeast), β-glucosidases (from almond and bovine liver), α-galactosidase (from coffee beans), β-galactosidase (from bovine liver), α-mannosidase (from Jack bean), β-mannosidase (from snail), α-L-rhamnosidase (from Penicillium decumbens), α-L-fucosidase (from bovine kidney), trehalase (from porcine kidney), β-glucuronidases (from E. coli and bovine liver), amyloglucosidase (from A. niger), para-nitrophenyl glycosides, and various disaccharides were purchased from Sigma-Aldrich Co.
as §3

[3] = target: T2, bovine kidney α-L-fucosidase (Bos taurus, UniProt Q2KIM0); test: Glycosidase inhibition, bovine kidney α-L-fucosidase; type: biochemical
T2 construct: purchased Sigma-Aldrich Co; host or cells: bovine kidney
T2 sequence (Q2KIM0 23-468): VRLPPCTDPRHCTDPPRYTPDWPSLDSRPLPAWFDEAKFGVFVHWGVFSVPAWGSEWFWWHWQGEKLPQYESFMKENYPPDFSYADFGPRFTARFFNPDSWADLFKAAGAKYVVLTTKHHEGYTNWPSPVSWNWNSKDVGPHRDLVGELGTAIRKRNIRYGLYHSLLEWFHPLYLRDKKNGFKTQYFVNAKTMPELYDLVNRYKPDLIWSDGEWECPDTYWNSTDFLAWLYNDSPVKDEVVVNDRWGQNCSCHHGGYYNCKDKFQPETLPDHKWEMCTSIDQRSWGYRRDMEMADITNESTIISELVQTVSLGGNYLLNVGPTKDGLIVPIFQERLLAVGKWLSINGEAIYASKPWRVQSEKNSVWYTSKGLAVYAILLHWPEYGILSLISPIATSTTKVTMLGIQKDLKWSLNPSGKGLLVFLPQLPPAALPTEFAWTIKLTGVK
Text: as §1, §2, §4, §3

[4] = tested on: H460 (lung carcinoma); test: Cancer screening (MTT growth inhibition), H460; type: cell-based; conditions: 72 h; for inhibition at 25 µM: NCI-H460, 25 µM of drug, read-out: Percentage (%) cell growth inhibition; for inhibition at 25 µM / Percentage (%) cell growth inhibition: n = 3, mean ± SEM; for Percentage (%) cell growth inhibition: 25 µM of drug
Experimental: (§5) All test agents were prepared as stock solutions (20 mM) in dimethyl sulfoxide (DMSO) and stored at −20 °C. Cell lines used in the study included: HT29 (colorectal carcinoma), U87 and SJ-G2 (glioblastoma), MCF-7 (breast carcinoma), A2780 (ovarian carcinoma), H460 (lung carcinoma), A431 (skin carcinoma), Du145 (prostate carcinoma), BE2-C (neuroblastoma), MiaPaCa-2 (pancreatic carcinoma), SMA560 (spontaneous murine astrocytoma), and ADDP (Cis Res Ovarian), together with one non-tumor-derived normal breast cell line (MCF10A). All cell lines were incubated in a humidified atmosphere with 5 % CO2 at 37 °C. The cancer cell lines were maintained in Dulbecco’s modified Eagle’s medium (DMEM; Sigma, Australia) supplemented with fetal bovine serum (10%), sodium pyruvate (10 mM), penicillin (100 IUmL^−1), streptomycin (100 µg mL^−1), and L-glutamine (2 mM).
(§6) Growth inhibition was determined by plating cells in duplicate in medium (100 µL) at a density of 2500–4000 cells per well in 96-well plates. On day 0 (24 h after plating), when the cells are in logarithmic growth, medium (100 µL) with or without the test agent was added to each well. After 72 h of drug exposure, growth inhibitory effects were evaluated using the (3-(4,5-dimethyltiazol-2-yl)-2,5-diphenyltetrazolium bromide) (MTT) assay and absorbance read at 540 nm. The percentage growth inhibition was calculated at a fixed concentration of 25 µM, based on the difference between the optical density values on day 0 and those at the end of drug exposure. Each data point is the mean ± the standard error of the mean (SEM) calculated from three replicates, which were performed on separate occasions and in separate cell line passages.

[5] = tested on: Du145 (prostate carcinoma); test: Cancer screening (MTT growth inhibition), Du145; type: cell-based; conditions: 72 h; for inhibition at 25 µM: DU-145, 25 µM of drug, read-out: Percentage (%) cell growth inhibition; for inhibition at 25 µM / Percentage (%) cell growth inhibition: n = 3, mean ± SEM; for Percentage (%) cell growth inhibition: 25 µM of drug
Experimental: as §5, §6

[6] = tested on: all cell lines (cancer cell lines and normal cell line); test: Cancer screening, all cell lines; type: cell-based; conditions: all cancer cell lines and the normal cell line
Experimental: as §5, with “The cancer cell lines were maintained in Dulbecco’s modified Eagle’s medium (DMEM; Sigma, Australia) supplemented with fetal bovine serum (10%), sodium pyruvate (10 mM), penicillin (100 IUmL^−1), streptomycin (100 µg mL^−1), and L-glutamine (2 mM).” left out
as §6, with “On day 0 (24 h after plating), when the cells are in logarithmic growth, medium (100 µL) with or without the test agent was added to each well.” left out

[7] = Solubility in water; type: physicochemical
[8] = tested on: ADDP (Cis Res Ovarian) cell line; test: Cancer screening (MTT growth inhibition), ADDP; type: cell-based
Experimental: as §5, with “The cancer cell lines were maintained in Dulbecco’s modified Eagle’s medium (DMEM; Sigma, Australia) supplemented with fetal bovine serum (10%), sodium pyruvate (10 mM), penicillin (100 IUmL^−1), streptomycin (100 µg mL^−1), and L-glutamine (2 mM).” left out
as §6, with “On day 0 (24 h after plating), when the cells are in logarithmic growth, medium (100 µL) with or without the test agent was added to each well.” left out

[9] = at 100 μM, in methanol, read-out: inhibition %
[10] = at 100 μM, read-out: NI: No inhibition
[11] = at 1000 μM, in methanol, read-out: inhibition %
[12] = at 1000 μM, read-out: NI: No inhibition

Molecule | inhibition at 100 µM [1, 9] [%] | inhibition at 100 µM [1, 10] [%] | inhibition at 100 µM [2, 9] [%] | inhibition at 100 µM [2, 10] [%] | inhibition at 100 µM [3, 9] [%] | inhibition at 100 µM [3, 10] [%] | inhibition at 25 µM ([4]; Homo sapiens) [%] | inhibition at 25 µM ([5]; Homo sapiens) [%] | GI50 [6] [µM] | solubility in water [7] | Percentage (%) cell growth inhibition [4] [%] | Percentage (%) cell growth inhibition [5] [%] | other results
CC1(C)OCC(C2OC3OC(C)(C)OC3C2[B-]23OCC[NH+]2CCO3)O1 [Compound 6, 3-Deoxy-3-Boronodiethanolamine-1,2:5,6-Di-O-isopropylidene-α-D-galactofuranose] | 5.9 | < 50 | 0.5 | < 50 | 6.5 | < 50 | 9 ± 2 | 0 | > 50 | soluble in water | – | – | –
N[C@@H](Cc1ccc(B(O)O)cc1)C(=O)O [^10B-BPA] | – | – | – | – | – | – | – | – | – | – | 8 ± 5 | 15 ± 9 | NI: No inhibition ([1]; at 100 μM): NI (No inhibition (less than 50% inhibition at 100 μM)); inhibition % ([1]; at 100 μM, in methanol): 0%; inhibition % ([2]; at 100 μM, in methanol): 1.2%; NI: No inhibition ([3]; at 100 μM): NI (No inhibition (less than 50% inhibition at 100 μM)); inhibition % ([3]; at 100 μM, in methanol): 0%
N[C@@H](Cc1ccc(B(O)O)cc1)C(=O)O [BPA, 4-borono-L-phenylalanine] | 0 | < 50 | 4.3 | < 50 | 0 | < 50 | 7 ± 8 | 19 ± 10 | – | – | – | – | –
OCC1OC(O)C(O)C(B(O)O)C1O [Compound 7, 3-Boronic-3-Deoxy-D-galactose] | – | – | – | – | – | – | 4 ± 1 | 7 ± 4 | > 50 | soluble in water | – | – | inhibition at 1000 µM [1, 11]: 33.8%; inhibition at 1000 µM [1, 12]: < 50%; inhibition at 1000 µM [2, 11]: 0%; inhibition at 1000 µM [2, 12]: < 50%; inhibition at 1000 µM [3, 11]: 1.3%; inhibition at 1000 µM [3, 12]: < 50%; GI50 ([4]; Homo sapiens, NCI-H460, dose response, read-out: GI50 = Concentration that inhibits cell growth by 50%): > 50 µM; GI50 ([5]; Homo sapiens, DU-145, dose response, read-out: GI50 = Concentration that inhibits cell growth by 50%): > 50 µM; inhibition at 25 µM ([8]; 25 µM of drug, 72 h, MTT): 2%; GI50 ([8]; dose response, unit from table title): > 50 µM
Borocaptate sodium [BSH] | – | – | – | – | – | – | – | – | – | – | 8 ± 2 | 0 ± 8 | NI: No inhibition ([1]; at 1000 μM): NI (No inhibition (less than 50% inhibition at 1000 μM)); inhibition % ([1]; at 1000 μM, in methanol): 0%; inhibition % ([2]; at 1000 μM, in methanol): 12.3%; NI: No inhibition ([3]; at 1000 μM): NI (No inhibition (less than 50% inhibition at 1000 μM)); inhibition % ([3]; at 1000 μM, in methanol): 0%
